# Assays:
# demodex mites [1] = assay: Case study, rosacea patient; assay type: in vivo, human; conditions: Case 1, person with rosacea, DHIS 0.75% cream BID for 4 weeks
# Description: Case 1 involved a person with rosacea for 11 years. They had facial erythema and papules and pustules, with mild telangiectasia. There was burning sensation. This was associated with mild rhinophyma. There was foreign body sensation in the eyes. They had received tetracycline and sulfonamide based creams with no obvious improvement. At base line, there was more than usual number of demodex mites. They received DHIS 0.75% cream treatment BID for 4 weeks. […] See photos of the rosacea patient prior to treatment (FIG. 3A) and after 4 weeks of treatment (FIG. 3B).
# demodex mites [2] = assay: Topical DHIS cream in volunteers with papulopustular rosacea (FIG. 1); assay type: in vivo, human; conditions: DHIS 0.75% cream twice daily
# Procedure: (§1) A total of 20 volunteers (10 with papulopustular rosacea, 10 with papulopustular acne vulgaris) were recruited for this observation.
# (§2) For each volunteer, the duration of the condition, the baseline sign and symptoms of their facial conditions and the severity of their condition were recorded. For the signs of the condition, papules and pustules were counted as total number for each individual. Erythema was rated as severe (3, deep red to purple), moderate (2, red), mild (1, pink), or none (0, normal color). For burning and pruritus, visual analogue scale (10 cm line) was used, with the score recorded from 0 (no symptoms) to 10 cm (most severe). In addition, the baseline demodex mite density of the perinasal skin was measured using the modified pressure-scraping technique. For the purpose of this study, both D. folliculorum and D. bravis were counted together. Then each volunteer used DHIS topical cream at 0.75% concentration, twice daily to the affected areas on the face. They were seen again at 4 weeks, when the clinical signs and symptoms were recorded. Further the demodex mite density was assessed again using the modified pressure/scraping technique.
# (§3) Individuals with papulopustular rosacea (FIG. 1, N=10) and acne (FIG. 2, N=10) received DHIS 0.75% cream twice daily for 4 weeks. The demodex mite density (mite/cm^2) and clinical signs/symptoms are assessed at the baseline and again at 4 weeks. Papules and pustules are counted or the entire facial area for each individual. Erythema was graded as mild (1, pink), moderate (2, red), or severe (3, purple-red), whereas itchiness and burning sensation were graded according to a 10 cm visual analogue scale. * denotes p<0.05 (t-test)
# D. bravis = assay: In vitro miticidal assay, survival of isolated human demodex mites under microscopy; conditions: for Number mites dead: 30 mites per slide
# Procedure: (§4) DHIS has potent miticidal activities. As described herein, an in vitro miticidal assay was performed to determine the miticidal activities of DHIS by using human demodex mites prepared with pressure scraping method, following by microscopic examination of the survival time of demodex under microscopy, using the method described in Chinese Journal of Parasitology and Parasitic Diseases 2011; 29:258-263.
# (§5) In vitro miticidal assay was performed using human demodex mites prepared with pressure scraping method, following by microscopic examination of the survival time of demodex under microscopy, using the method described in Chinese Journal of Parasitology and Parasitic Diseases (Supra).
# (§6) […] The slides were incubated at room temperature (20° C.) and under 70% humidity. The slides were examined under microscopy every 60 minutes for 8 hours after treatment. At each time point, the percentage of dead mites (no movements for 1 minute) was recorded for each treatment concentration.
# D. folliculorum = assay: as above; conditions: for Number mites dead / (%) mites dead: D. folliculorum; for Number mites dead: 30 mites per slide
# Procedure: as §4, §5, §6
# demodex mites [3] = assay: Case study, acne patient; assay type: in vivo, human; conditions: Case 2, person with acne, DHIS 0.75% cream BID, 4 weeks
# Description: Case 2 involved a person with more than 3 years of acnes symptoms. They had open comedons as well as closed comedons. There were papules and pustules but only mild erythema. They had received topical retinoic acid therapy with no improvement. In addition, they received benzoyl peroxide/antibiotic combination topical therapy, oral birth control pills, oral tetracycline, as well as oral Traditional Chinese Medicine concoction, all without satisfactory effects. They had increased demodex mite count at base line. […] Their facial acne papules and pustules resolved at the end of 4 weeks. See photos of the acne patient (cheeks and forehead) prior to treatment (FIGS. 4A and 5A) and after 4 weeks of treatment (FIGS. 4B and 5B).
# demodex mites [4] = assay: Topical DHIS cream in volunteers with papulopustular acne vulgaris (FIG. 2); assay type: in vivo, human; conditions: acne patients, DHIS 0.75% cream twice daily
# Procedure: as §1, §2, §3
compound,measurement,setting,value
"CC(C)c1c(O)cc(/C=C/c2ccccc2)cc1O [DHIS, 3,5-Dihydroxy-4-isopropyl-trans-stilbene]",demodex mite density,demodex mites [1],markedly decreased
same,rosacea signs and symptoms,demodex mites [1],dramatically improved
same,erythema,demodex mites [2]; 4 weeks,reduced erythema was also statistically significant
same,itchiness and burning sensation,demodex mites [2]; 4 weeks,reduced
same,lesional counts for papules and pustules,demodex mites [2]; 4 weeks,dramatic reduction
same,demodex mite density,demodex mites [2]; 4 weeks compared with baseline,significant reduction
same,Number mites dead,"D. bravis; DHIS 1 μM, 0 hr",0
same,(%) mites dead,"D. bravis; DHIS 1 μM, 1 hr",(6.7) %
same,Number mites dead,"D. bravis; DHIS 1 μM, 1 hr",2
same,(%) mites dead,"D. bravis; DHIS 1 μM, 2 hr",(13) %
same,Number mites dead,"D. bravis; DHIS 1 μM, 2 hr",4
same,(%) mites dead,"D. bravis; DHIS 1 μM, 3 hr",(23) %
same,Number mites dead,"D. bravis; DHIS 1 μM, 3 hr",7
same,(%) mites dead,"D. bravis; DHIS 1 μM, 4 hr",(33) %
same,Number mites dead,"D. bravis; DHIS 1 μM, 4 hr",10
same,Number mites dead,"D. bravis; DHIS 10 μM, 0 hr",0
same,(%) mites dead,"D. bravis; DHIS 10 μM, 1 hr",(20) %
same,Number mites dead,"D. bravis; DHIS 10 μM, 1 hr",6
same,(%) mites dead,"D. bravis; DHIS 10 μM, 2 hr",(37) %
same,Number mites dead,"D. bravis; DHIS 10 μM, 2 hr",11
same,(%) mites dead,"D. bravis; DHIS 10 μM, 3 hr",(47) %
same,Number mites dead,"D. bravis; DHIS 10 μM, 3 hr",14
same,(%) mites dead,"D. bravis; DHIS 10 μM, 4 hr",(63) %
same,Number mites dead,"D. bravis; DHIS 10 μM, 4 hr",19
same,Number mites dead,"D. bravis; DHIS 100 μM, 0 hr",0
same,(%) mites dead,"D. bravis; DHIS 100 μM, 1 hr",(40) %
same,Number mites dead,"D. bravis; DHIS 100 μM, 1 hr",12
same,(%) mites dead,"D. bravis; DHIS 100 μM, 2 hr",(63) %
same,Number mites dead,"D. bravis; DHIS 100 μM, 2 hr",19
same,(%) mites dead,"D. bravis; DHIS 100 μM, 3 hr",(80) %
same,Number mites dead,"D. bravis; DHIS 100 μM, 3 hr",24
same,(%) mites dead,"D. bravis; DHIS 100 μM, 4 hr",(87) %
same,Number mites dead,"D. bravis; DHIS 100 μM, 4 hr",26
same,Number mites dead,"D. bravis; DHIS 1.0 mM, 0 hr",0
same,(%) mites dead,"D. bravis; DHIS 1.0 mM, 1 hr",(47) %
same,Number mites dead,"D. bravis; DHIS 1.0 mM, 1 hr",14
same,(%) mites dead,"D. bravis; DHIS 1.0 mM, 2 hr",(60) %
same,Number mites dead,"D. bravis; DHIS 1.0 mM, 2 hr",18
same,(%) mites dead,"D. bravis; DHIS 1.0 mM, 3 hr",(87) %
same,Number mites dead,"D. bravis; DHIS 1.0 mM, 3 hr",26
same,(%) mites dead,"D. bravis; DHIS 1.0 mM, 4 hr",(87) %
same,Number mites dead,"D. bravis; DHIS 1.0 mM, 4 hr",26
same,Number mites dead,"D. folliculorum; DHIS 1 μM, 0 hr",0
same,(%) mites dead,"D. folliculorum; DHIS 1 μM, 1 hr",(10) %
same,Number mites dead,"D. folliculorum; DHIS 1 μM, 1 hr",3
same,(%) mites dead,"D. folliculorum; DHIS 1 μM, 2 hr",(17) %
same,Number mites dead,"D. folliculorum; DHIS 1 μM, 2 hr",5
same,(%) mites dead,"D. folliculorum; DHIS 1 μM, 3 hr",(28) %
same,Number mites dead,"D. folliculorum; DHIS 1 μM, 3 hr",8.6
same,(%) mites dead,"D. folliculorum; DHIS 1 μM, 4 hr",(43) %
same,Number mites dead,"D. folliculorum; DHIS 1 μM, 4 hr",13
same,Number mites dead,"D. folliculorum; DHIS 10 μM, 0 hr",0
same,(%) mites dead,"D. folliculorum; DHIS 10 μM, 1 hr",(23) %
same,Number mites dead,"D. folliculorum; DHIS 10 μM, 1 hr",7
same,(%) mites dead,"D. folliculorum; DHIS 10 μM, 2 hr",(41) %
same,Number mites dead,"D. folliculorum; DHIS 10 μM, 2 hr",12.3
same,(%) mites dead,"D. folliculorum; DHIS 10 μM, 3 hr",(47) %
same,Number mites dead,"D. folliculorum; DHIS 10 μM, 3 hr",14
same,(%) mites dead,"D. folliculorum; DHIS 10 μM, 4 hr",(73) %
same,Number mites dead,"D. folliculorum; DHIS 10 μM, 4 hr",22
same,Number mites dead,"D. folliculorum; DHIS 100 μM, 0 hr",0
same,(%) mites dead,"D. folliculorum; DHIS 100 μM, 1 hr",(33) %
same,Number mites dead,"D. folliculorum; DHIS 100 μM, 1 hr",10
same,(%) mites dead,"D. folliculorum; DHIS 100 μM, 2 hr",(72) %
same,Number mites dead,"D. folliculorum; DHIS 100 μM, 2 hr",21.7
same,(%) mites dead,"D. folliculorum; DHIS 100 μM, 3 hr",(87) %
same,Number mites dead,"D. folliculorum; DHIS 100 μM, 3 hr",26
same,(%) mites dead,"D. folliculorum; DHIS 100 μM, 4 hr",(92) %
same,Number mites dead,"D. folliculorum; DHIS 100 μM, 4 hr",27.7
same,Number mites dead,"D. folliculorum; DHIS 1.0 mM, 0 hr",0
same,(%) mites dead,"D. folliculorum; DHIS 1.0 mM, 1 hr",(43) %
same,Number mites dead,"D. folliculorum; DHIS 1.0 mM, 1 hr",13
same,(%) mites dead,"D. folliculorum; DHIS 1.0 mM, 2 hr",(80) %
same,Number mites dead,"D. folliculorum; DHIS 1.0 mM, 2 hr",24
same,(%) mites dead,"D. folliculorum; DHIS 1.0 mM, 3 hr",(93) %
same,Number mites dead,"D. folliculorum; DHIS 1.0 mM, 3 hr",28
same,(%) mites dead,"D. folliculorum; DHIS 1.0 mM, 4 hr",(97) %
same,Number mites dead,"D. folliculorum; DHIS 1.0 mM, 4 hr",29
same,miticidal activity in vitro,"D. folliculorum; human demodex mites, Example 1",dose-dependent miticidal activity
same,facial acne papules and pustules,demodex mites [3],resolved
same,facial demodex mite density,demodex mites [3],significantly decreased
same,erythema,demodex mites [4]; 4 weeks,reduced erythema was also statistically significant
same,itchiness and burning sensation,demodex mites [4]; 4 weeks,reduced
same,lesional counts for papules and pustules,demodex mites [4]; 4 weeks,dramatic reduction
same,demodex mite density,demodex mites [4]; 4 weeks compared with baseline,significant reduction

# — US20170231922A1, “3, 5-DIHYDROXY-4-ISOPROPYLSTILBENE (DHIS) AS MITICIDAL AGENT AND ITS THERAPEUTIC USES” (Horizon GenoMed Therapeutics, Inc, priority 2016, published 2017)
